In brackets after ≈: the same amount, converted by molar mass.
Key:
[1] = tested on: Staphylococcus aureus; experiment: Antibacterial activity against methicillin-resistant Staphylococcus aureus N315 assessed as inhibition of visible growth measured after 18 to 24 hrs by broth dilution method; format: functional; conditions: time 18-24 hrs
[2] = Haemolytic activity in rabbit red blood cells incubated for 60 mins by k multi-mode reader relative to control; format: toxicity, cell-based, Oryctolagus cuniculus, Erythrocyte; conditions: for HC50 at 1 h: rabbit red blood cells
[3] = tested on: Staphylococcus aureus; experiment: Antibacterial activity against methicillin-resistant Staphylococcus aureus NCTC 10442 assessed as inhibition of visible growth measured after 18 to 24 hrs by broth dilution method; format: functional; conditions: time 18-24 hrs
[4] = tested on: Escherichia coli; experiment: Antibacterial activity against Escherichia coli ATCC 25922 assessed as inhibition of visible growth measured after 18 to 24 hrs by broth dilution method; format: functional; conditions: time 18-24 hrs
[5] = tested on: Staphylococcus aureus; experiment: Antibacterial activity against Staphylococcus aureus ATCC 29213 assessed as inhibition of visible growth measured after 18 to 24 hrs by broth dilution method; format: functional; conditions: time 18-24 hrs
[6] = Selectivity ratio, HC50 for hemolytic activity in rabbit RBC to MIC for antibacterial activity against methicillin-resistant Staphylococcus aureus NCTC 10442; format: toxicity; conditions: rabbit red blood cells
[7] = Selectivity ratio, HC50 for hemolytic activity in rabbit RBC to MIC for antibacterial activity against Staphylococcus aureus ATCC 29213; format: toxicity; conditions: rabbit red blood cells
[8] = Selectivity ratio, HC50 for hemolytic activity in rabbit RBC to MIC for antibacterial activity against methicillin-resistant Staphylococcus aureus N315; format: toxicity; conditions: rabbit red blood cells
[9] = Selectivity ratio, HC50 for hemolytic activity in rabbit RBC to MIC for antibacterial activity against Klebsiella pneumoniae ATCC 10031; format: toxicity; conditions: rabbit red blood cells
[10] = Selectivity ratio, HC50 for hemolytic activity in rabbit RBC to MIC for antibacterial activity against Klebsiella pneumoniae ATCC 14581; format: toxicity; conditions: rabbit red blood cells
[11] = tested on: Klebsiella pneumoniae; experiment: Antibacterial activity against Klebsiella pneumoniae ATCC 10031 assessed as inhibition of visible growth measured after 18 to 24 hrs by broth dilution method; format: functional; conditions: time 18-24 hrs
[12] = tested on: Acinetobacter baumannii; experiment: Antibacterial activity against Acinetobacter baumannii R2889 assessed as inhibition of visible growth measured after 18 to 24 hrs by broth dilution method; format: functional; conditions: time 18-24 hrs
[13] = Selectivity ratio, HC50 for hemolytic activity in rabbit RBC to MIC for antibacterial activity against Acinetobacter baumannii R2889; format: toxicity; conditions: rabbit red blood cells
[14] = tested on: Klebsiella pneumoniae; experiment: Antibacterial activity against Klebsiella pneumoniae ATCC 14581 assessed as inhibition of visible growth measured after 18 to 24 hrs by broth dilution method; format: functional; conditions: time 18-24 hrs
[15] = tested on: Acinetobacter baumannii; experiment: Antibacterial activity against Acinetobacter baumannii ATCC 17978 assessed as inhibition of visible growth measured after 18 to 24 hrs by broth dilution method; format: functional; conditions: time 18-24 hrs
[16] = Selectivity ratio, HC50 for hemolytic activity in rabbit RBC to MIC for antibacterial activity against Pseudomonas aeruginosa ATCC 9027; format: toxicity; conditions: rabbit red blood cells
[17] = Selectivity ratio, HC50 for hemolytic activity in rabbit RBC to MIC for antibacterial activity against Acinetobacter baumannii ATCC 17978; format: toxicity; conditions: rabbit red blood cells
[18] = tested on: Staphylococcus aureus; experiment: Antibacterial activity against Staphylococcus aureus ATCC 29213 assessed as reduction in bacterial load at 8 time of MIC measured after 8 hrs by time kill assay; format: functional

Question: For `COc1cc(CNC(=O)CCCC/C=C/C(C)C)ccc1OCCCCCCNCCN(CCNC(=N)N)CCNC(=N)N`, which MIC [1] is on record?
Answer: 3.12 µg/mL (≈ 5.06 µM)

Question: And the HC50 at 1 h [2]?
Answer: > 200 µg/mL

Question: And the MIC [3]?
Answer: 3.12 µg/mL (≈ 5.06 µM)

Question: What about the MIC [4] of the same compound?
Answer: 50 µg/mL (≈ 80.9 µM)

Question: What about the MIC [5] of the same compound?
Answer: 6.25 µg/mL (≈ 10.1 µM)

Question: And the selectivity ratio [6]?
Answer: > 32

Question: And the selectivity ratio [7]?
Answer: > 32

Question: What about the selectivity ratio [8] of the same compound?
Answer: > 32

Question: For `CCCCCCCCC(=O)NCc1ccc(OCCCCCCNCCN(CCN)CCN)c(OC)c1`, which MIC [1] is on record?
Answer: 3.12 µg/mL (≈ 5.99 µM)

Question: And the HC50 at 1 h [2]?
Answer: > 200 µg/mL

Question: And the MIC [3]?
Answer: 3.12 µg/mL (≈ 5.99 µM)

Question: And the MIC [4]?
Answer: > 50 µg/mL

Question: What about the MIC [5] of the same compound?
Answer: 3.12 µg/mL (≈ 5.99 µM)

Question: And the selectivity ratio [6]?
Answer: > 64

Question: What about the selectivity ratio [7] of the same compound?
Answer: > 64

Question: And the selectivity ratio [8]?
Answer: > 64

Question: For `CCCCCCCCC(=O)NCc1ccc(OCCCCN(CC)CC)c(OC)c1`, which MIC [1] is on record?
Answer: > 50 µg/mL

Question: And the HC50 at 1 h [2]?
Answer: > 200 µg/mL

Question: What about the MIC [3] of the same compound?
Answer: > 50 µg/mL

Question: And the MIC [4]?
Answer: > 50 µg/mL

Question: And the MIC [5]?
Answer: > 50 µg/mL

Question: Which results are given for `CC[C@H](C)[C@H](NC(=O)CN)C(=O)NCC(=O)N[C@@H](C)C(=O)N[C@H](C(=O)N[C@@H](CC(C)C)C(=O)N[C@@H](CCCCN)C(=O)N[C@H](C(=O)N[C@@H](CC(C)C)C(=O)N[C@H](C(=O)N[C@H](C(=O)NCC(=O)N[C@@H](CC(C)C)C(=O)N1CCC[C@H]1C(=O)N[C@@H](C)C(=O)N[C@@H](CC(C)C)C(=O)N[C@H](C(=O)N[C@@H](CO)C(=O)N[C@@H](Cc1c[nH]c2ccccc12)C(=O)N[C@H](C(=O)N[C@@H](CCCCN)C(=O)N[C@@H](CCCNC(=N)N)C(=O)N[C@@H](CCCCN)C(=O)N[C@@H](CCCNC(=N)N)C(=O)N[C@@H](CCC(N)=O)C(=O)N[C@@H](CCC(N)=O)C(N)=O)[C@@H](C)CC)[C@@H](C)CC)[C@@H](C)O)[C@@H](C)O)C(C)C)C(C)C` [MELITTIN]?
Answer: selectivity ratio [9]: 3.1; selectivity ratio [10]: 3.1; MIC [11]: 6.25 µg/mL (≈ 2.2 µM); HC5 ([2]; erythrocyte, 1 h): 5.4 µg/mL; MIC [12]: 3.12 µg/mL (≈ 1.1 µM); selectivity ratio [13]: 3.1; MIC [14]: 6.25 µg/mL (≈ 2.2 µM); selectivity ratio [6]: 6.1; selectivity ratio [7]: 6.1; MIC [15]: 3.12 µg/mL (≈ 1.1 µM); selectivity ratio [16]: 3.1; selectivity ratio [17]: 3.1; selectivity ratio [8]: 6.1

Question: With `CCCCCCCCC(=O)NCc1ccc(OCCCCCCCCCCNC(=N)N)c(OC)c1` as the compound, how does the MIC [1] read?
Answer: 6.25 µg/mL (≈ 12.7 µM)

Question: What about the HC50 at 1 h [2] of the same compound?
Answer: > 200 µg/mL

Question: And the MIC [3]?
Answer: 6.25 µg/mL (≈ 12.7 µM)

Question: What about the MIC [4] of the same compound?
Answer: > 50 µg/mL

Question: What about the MIC [5] of the same compound?
Answer: 6.25 µg/mL (≈ 12.7 µM)

Question: And the selectivity ratio [6]?
Answer: > 32

Question: What about the selectivity ratio [7] of the same compound?
Answer: > 32

Question: What about the selectivity ratio [8] of the same compound?
Answer: > 32

Question: Which MIC [1] does the source give for `COc1cc(CNC(=O)CCCC/C=C/C(C)C)ccc1OCCCCCCN` here?
Answer: > 50 µg/mL

Question: And the HC50 at 1 h [2]?
Answer: > 200 µg/mL

Question: What about the MIC [3] of the same compound?
Answer: > 50 µg/mL

Question: And the MIC [4]?
Answer: > 50 µg/mL

Question: What about the MIC [5] of the same compound?
Answer: > 50 µg/mL

Question: Which MIC [1] does the source give for `CCCCCCCCC(=O)NCc1ccc(OCCCNC(=N)N)c(OC)c1` here?
Answer: 12.5 µg/mL (≈ 31.8 µM)

Question: What about the HC50 at 1 h [2] of the same compound?
Answer: > 200 µg/mL

Question: What about the MIC [3] of the same compound?
Answer: 12.5 µg/mL (≈ 31.8 µM)

Question: And the MIC [4]?
Answer: > 50 µg/mL

Question: What about the MIC [5] of the same compound?
Answer: 25 µg/mL (≈ 63.7 µM)

Question: And the selectivity ratio [6]?
Answer: > 8

Question: What about the selectivity ratio [7] of the same compound?
Answer: > 8

Question: And the selectivity ratio [8]?
Answer: > 8

Question: Which results are given for `CCCCCCCCC(=O)NCc1ccc(OCCCCCCCCNC(=N)N)c(OC)c1`?
Answer: MIC [1]: 1.56 µg/mL (≈ 3.37 µM); HC50 at 1 h [2]: > 200 µg/mL; MIC [3]: 1.56 µg/mL (≈ 3.37 µM); MIC [4]: > 50 µg/mL; MIC [5]: 1.56 µg/mL (≈ 3.37 µM); selectivity ratio [6]: > 128; selectivity ratio [7]: > 128; selectivity ratio [8]: > 128

Question: What does the source list for `CCCCCCCCC(=O)NCc1ccc(OCC(=O)N[C@@H](CCCNC(=N)N)C(=O)N[C@@H](CCCNC(=N)N)C(=O)N[C@@H](CCCNC(=N)N)C(=O)OC)c(OC)c1`?
Answer: MIC [1]: > 50 µg/mL; HC50 at 1 h [2]: > 200 µg/mL; MIC [3]: 50 µg/mL (≈ 59.9 µM); MIC [4]: > 50 µg/mL; MIC [5]: > 50 µg/mL

Question: For `CCCCCCCCC(=O)NCc1ccc(OCCCCCNC(=N)N)c(OC)c1`, which MIC [1] is on record?
Answer: 6.25 µg/mL (≈ 14.9 µM)

Question: And the HC50 at 1 h [2]?
Answer: > 200 µg/mL

Question: What about the MIC [3] of the same compound?
Answer: 6.25 µg/mL (≈ 14.9 µM)

Question: And the MIC [4]?
Answer: 50 µg/mL (≈ 119 µM)

Question: And the MIC [5]?
Answer: 6.25 µg/mL (≈ 14.9 µM)

Question: And the selectivity ratio [6]?
Answer: > 32

Question: And the selectivity ratio [7]?
Answer: > 32

Question: What about the selectivity ratio [8] of the same compound?
Answer: > 32

Question: Which results are given for `CCCCCCCCC(=O)NCc1ccc(OCCCCNCC)c(OC)c1`?
Answer: MIC [1]: > 50 µg/mL; HC50 at 1 h [2]: > 200 µg/mL; MIC [3]: > 50 µg/mL; MIC [4]: > 50 µg/mL; MIC [5]: > 50 µg/mL

Question: For `CCCCCCCCC(=O)NCc1ccc(OCCCCN)c(OC)c1`, which MIC [1] is on record?
Answer: > 50 µg/mL

Question: What about the HC50 at 1 h [2] of the same compound?
Answer: > 200 µg/mL

Question: And the MIC [3]?
Answer: > 50 µg/mL

Question: And the MIC [4]?
Answer: > 50 µg/mL

Question: And the MIC [5]?
Answer: > 50 µg/mL

Question: Which MIC [1] does the source give for `CN[C@H](CC(C)C)C(=O)N[C@H]1C(=O)N[C@@H](CC(N)=O)C(=O)N[C@H]2C(=O)N[C@H]3C(=O)N[C@H](C(=O)N[C@H](C(=O)O)c4cc(O)cc(O)c4-c4cc3ccc4O)[C@H](O)c3ccc(c(Cl)c3)Oc3cc2cc(c3O[C@@H]2O[C@H](CO)[C@@H](O)[C@H](O)[C@H]2O[C@H]2C[C@](C)(N)[C@H](O)[C@H](C)O2)Oc2ccc(cc2Cl)[C@H]1O` [VANCOMYCIN] here?
Answer: 0.78 µg/mL (≈ 0.538 µM)

Question: What about the MIC [3] of the same compound?
Answer: 0.78 µg/mL (≈ 0.538 µM)

Question: And the MIC [4]?
Answer: > 50 µg/mL

Question: And the Activity [18]?
Answer: 2.44 log10CFU/ml

Question: And the MIC [5]?
Answer: 1.56 µg/mL (≈ 1.08 µM)

Question: Which results are given for `COc1cc(CNC(=O)CCCC/C=C/C(C)C)ccc1OCCCCNC(=N)N`?
Answer: MIC [1]: 6.25 µg/mL (≈ 14.9 µM); HC50 at 1 h [2]: > 200 µg/mL; MIC [3]: 3.12 µg/mL (≈ 7.47 µM); MIC [4]: 50 µg/mL (≈ 119 µM); MIC [5]: 3.12 µg/mL (≈ 7.47 µM); selectivity ratio [6]: > 32; selectivity ratio [7]: > 32; selectivity ratio [8]: > 32

— ChEMBL document CHEMBL5236632, “Membrane-Active Nonivamide Derivatives as Effective Broad-Spectrum Antimicrobials: Rational Design, Synthesis, and Biological Evaluation” (J Med Chem, 2022)
